≈ marks a conversion by molar mass, not a printed value. Calls of active or inactive are those of the source. The rule behind the calls is not given here.
What was measured:
Staphylococcus aureus [1] = assay: Antibacterial activity against gram-positive methicillin-resistant Staphylococcus aureus H 5996/08 after 24 hrs by microdilution broth method; assay type: functional; conditions: H 5996/08, 24 h
Lichtheimia corymbifera = assay: Antifungal activity against Absidia corymbifera 272 after 24 to 48 hrs by microdilution broth method; assay type: functional, organism-based
Pichia kudriavzevii [2] = assay: Antifungal activity against Candida krusei E28 after 48 hrs by microdilution broth method; assay type: functional; conditions: E28, 48 h
Mycobacterium kansasii [3] = assay: Antimycobacterial activity against Mycobacterium kansasii 6509/80 after 14 days by micromethod; assay type: functional; conditions: 6509/80, 336 h
Candida tropicalis [4] = assay: Antifungal activity against Candida tropicalis 156 after 48 hrs by microdilution broth method; assay type: functional; conditions: Candida tropicalis, 156, 48 h
Mycobacterium kansasii [5] = assay: Antimycobacterial activity against Mycobacterium kansasii 6509/96 after 21 days by micromethod; assay type: functional; conditions: 6509/96, 504 h
Staphylococcus aureus [6] = assay: Antibacterial activity against gram-positive Staphylococcus aureus CCM 4516/08 after 24 hrs by microdilution broth method; assay type: functional; conditions: CCM 4516/08, 24 h
Staphylococcus aureus [7] = assay: Antibacterial activity against gram-positive Staphylococcus aureus CCM 4516/08 after 48 hrs by microdilution broth method; assay type: functional; conditions: CCM 4516/08, 48 h
[8] = Cytotoxicity against mouse bone marrow macrophages after overnight incubation by MTT assay; conditions: BMDM
Enterococcus faecalis [9] = assay: Antibacterial activity against gram-positive Enterococcus faecalis J 14365/08 after 24 hrs by microdilution broth method; assay type: functional; conditions: J 14365/08, 24 h
Mycobacterium kansasii [10] = assay: Antimycobacterial activity against Mycobacterium kansasii 6509/80 after 21 days by micromethod; assay type: functional; conditions: 6509/80, 504 h
[11] = test system: Staphylococcus epidermidis; assay: Antibacterial activity against gram-positive Staphylococcus epidermidis H 6966/08 after 24 hrs by microdilution broth method; assay type: functional; conditions: H 6966/08, 24 h
Nakaseomyces glabratus [12] = assay: Antifungal activity against Candida glabrata 20/I after 24 hrs by microdilution broth method; assay type: functional
Mycobacterium kansasii [13] = assay: Antimycobacterial activity against Mycobacterium kansasii 6509/96 after 14 days by micromethod; assay type: functional; conditions: 6509/96, 336 h
Mycobacterium avium [14] = assay: Antimycobacterial activity against Mycobacterium avium 330/88 after 14 days by micromethod; assay type: functional; conditions: 330/88, 336 h
Aspergillus fumigatus = assay: Antifungal activity against Aspergillus fumigatus 231 after 24 to 48 hrs by microdilution broth method; assay type: functional, organism-based
[15] = test system: Mycobacterium tuberculosis; assay: Antimycobacterial activity against Mycobacterium tuberculosis H37Rv 331/88 after 14 days by micromethod; assay type: functional; conditions: H37Rv 331/88, 336 h
Staphylococcus aureus [16] = assay: Antibacterial activity against gram-positive methicillin-resistant Staphylococcus aureus H 5996/08 after 48 hrs by microdilution broth method; assay type: functional; conditions: H 5996/08, 48 h
[17] = test system: Trichophyton mentagrophytes; assay: Antifungal activity against Trichophyton mentagrophytes 445 after 72 hrs by microdilution broth method; assay type: functional; conditions: Trichophyton mentagrophytes, 445, 72 h
[18] = test system: Mycobacterium tuberculosis; assay: Antimycobacterial activity against Mycobacterium tuberculosis H37Rv 331/88 after 21 days by micromethod; assay type: functional; conditions: H37Rv 331/88, 504 h
Escherichia coli [19] = assay: Antibacterial activity against gram-negative Escherichia coli CCM 4517 after 48 hrs by microdilution broth method; assay type: functional; conditions: CCM 4517, 48 h
[20] = test system: Trichophyton mentagrophytes; assay: Antifungal activity against Trichophyton mentagrophytes 445 after 120 hrs by microdilution broth method; assay type: functional; conditions: Trichophyton mentagrophytes, 445, 120 h
Mycobacterium avium [21] = assay: Antimycobacterial activity against Mycobacterium avium 330/88 after 21 days by micromethod; assay type: functional; conditions: 330/88, 504 h
MONO-MAC-6 [22] = assay: Cytotoxicity against human MONO-MAC-6 cells after overnight incubation by MTT assay; assay type: functional, cell-based
Escherichia coli [23] = assay: Antibacterial activity against gram-negative Escherichia coli CCM 4517 after 24 hrs by microdilution broth method; assay type: functional; conditions: CCM 4517, 24 h
[24] = Selectivity index, ratio of IC50 for human HepG2 cells to MIC for Trichophyton mentagrophytes 445; assay type: toxicity; conditions: read-out: Selectivity Index
[25] = test system: Staphylococcus epidermidis; assay: Antibacterial activity against gram-positive Staphylococcus epidermidis H 6966/08 after 48 hrs by microdilution broth method; assay type: functional; conditions: H 6966/08, 48 h
Pseudomonas aeruginosa = assay: Antibacterial activity against gram-negative Pseudomonas aeruginosa CCM 1961 after 48 hrs by microdilution broth method; assay type: functional, organism-based
Mycobacterium kansasii [26] = assay: Antimycobacterial activity against Mycobacterium kansasii 6509/80 after 7 days by micromethod; assay type: functional; conditions: 6509/80, 168 h
Klebsiella pneumoniae [27] = assay: Antibacterial activity against extended spectrum beta-lactamase-positive Klebsiella pneumoniae J 14368/08 after 24 to 48 hrs by microdilution broth method; assay type: functional, organism-based
Nakaseomyces glabratus [28] = assay: Antifungal activity against Candida glabrata 20/I after 48 hrs by microdilution broth method; assay type: functional
Pichia kudriavzevii [29] = assay: Antifungal activity against Candida krusei E28 after 24 hrs by microdilution broth method; assay type: functional; conditions: E28, 24 h
HepG2 [30] = assay: Cytostatic activity against human HepG2 cells incubated overnight followed by compound wash measured after 72 hrs by MTT assay; assay type: ADME, cell-based; conditions: HepG2, 72 h
Mycobacterium kansasii [31] = assay: Antimycobacterial activity against Mycobacterium kansasii 6509/96 after 7 days by micromethod; assay type: functional; conditions: 6509/96, 168 h
Trichosporon asahii = assay: Antifungal activity against Trichosporon asahii 1188 after 24 to 48 hrs by microdilution broth method; assay type: functional, organism-based
HepG2 [32] = assay: Cytotoxicity against human HepG2 cells after overnight incubation by MTT assay; assay type: cell-based
Klebsiella pneumoniae [33] = assay: Antibacterial activity against gram-negative Klebsiella pneumoniae D 11750/08 after 24 to 48 hrs by microdilution broth method; assay type: functional, organism-based
Candida tropicalis [34] = assay: Antifungal activity against Candida tropicalis 156 after 24 hrs by microdilution broth method; assay type: functional; conditions: Candida tropicalis, 156, 24 h
Candida albicans = assay: Antifungal activity against Candida albicans ATCC 44859 after 24 to 48 hrs by microdilution broth method; assay type: functional, organism-based
Enterococcus faecalis [35] = assay: Antibacterial activity against gram-positive Enterococcus faecalis J 14365/08 after 48 hrs by microdilution broth method; assay type: functional; conditions: J 14365/08, 48 h
[36] = Selectivity index, ratio of IC50 for human HepG2 cells to MIC for Candida glabrata 20/I; assay type: toxicity; conditions: read-out: Selectivity Index
MONO-MAC-6 [37] = assay: Cytostatic activity against human MONO-MAC-6 cells incubated overnight followed by compound wash measured after 72 hrs by MTT assay; assay type: ADME, cell-based; conditions: MONO-MAC-6, 72 h
[38] = Selectivity index, ratio of IC50 for human HepG2 cells to MIC for gram-positive Staphylococcus aureus CCM 4516/08; assay type: toxicity; conditions: read-out: Selectivity Index
[39] = Selectivity index, ratio of IC50 for human HepG2 cells to MIC for Mycobacterium avium 330/88; assay type: toxicity; conditions: read-out: Selectivity Index
[40] = Selectivity index, ratio of IC50 for human HepG2 cells to MIC for Mycobacterium kansasii 6509/96; assay type: toxicity; conditions: read-out: Selectivity Index
[41] = Selectivity index, ratio of IC50 for human HepG2 cells to MIC for Mycobacterium tuberculosis H37Rv 331/88; assay type: toxicity; conditions: read-out: Selectivity Index
[42] = Selectivity index, ratio of IC50 for human HepG2 cells to MIC for Mycobacterium kansasii 6509/80; assay type: toxicity; conditions: read-out: Selectivity Index

O=C(N/N=C/c1ccccc1O)c1ccc(C(F)(F)F)cc1
MIC (Staphylococcus aureus [1]): 500 µM (≈ 154 µg/mL)
Activity (Lichtheimia corymbifera): inactive
MIC (Pichia kudriavzevii [2]): > 125 µM
MIC (Mycobacterium kansasii [3]): 250 µM (≈ 77.1 µg/mL)
MIC (Candida tropicalis [4]): > 125 µM
MIC (Mycobacterium kansasii [5]): 250 µM (≈ 77.1 µg/mL)
MIC (Staphylococcus aureus [6]): 500 µM (≈ 154 µg/mL)
MIC (Staphylococcus aureus [7]): > 500 µM
IC50 [8]: > 100 µM
MIC (Enterococcus faecalis [9]): 250 µM (≈ 77.1 µg/mL)
MIC (Mycobacterium kansasii [10]): 250 µM (≈ 77.1 µg/mL)
MIC [11]: 250 µM (≈ 77.1 µg/mL)
MIC (Nakaseomyces glabratus [12]): 3.9 µM (≈ 1.2 µg/mL)
MIC (Mycobacterium kansasii [13]): 250 µM (≈ 77.1 µg/mL)
MIC (Mycobacterium avium [14]): 125 µM (≈ 38.5 µg/mL)
Activity (Aspergillus fumigatus): inactive
MIC [15]: 125 µM (≈ 38.5 µg/mL)
MIC (Staphylococcus aureus [16]): > 500 µM
MIC [17]: 7.81 µM (≈ 2.41 µg/mL)
MIC [18]: 250 µM (≈ 77.1 µg/mL)
MIC (Escherichia coli [19]): 500 µM (≈ 154 µg/mL)
MIC [20]: 15.6 µM (≈ 4.82 µg/mL)
MIC (Mycobacterium avium [21]): 250 µM (≈ 77.1 µg/mL)
IC50 (MONO-MAC-6 [22]): 2.28 µM
MIC (Escherichia coli [23]): 500 µM (≈ 154 µg/mL)
selectivity ratio [24]: > 6.4
MIC [25]: 500 µM (≈ 154 µg/mL)
Activity (Pseudomonas aeruginosa): inactive
MIC (Mycobacterium kansasii [26]): 250 µM (≈ 77.1 µg/mL)
Activity (Klebsiella pneumoniae [27]): inactive
MIC (Nakaseomyces glabratus [28]): 15.6 µM (≈ 4.82 µg/mL)
MIC (Pichia kudriavzevii [29]): > 125 µM
IC50 (HepG2 [30]): 6.2 µM
MIC (Mycobacterium kansasii [31]): 250 µM (≈ 77.1 µg/mL)
Activity (Trichosporon asahii): inactive
IC50 (HepG2 [32]): > 100 µM
Activity (Klebsiella pneumoniae [33]): inactive
MIC (Candida tropicalis [34]): > 125 µM
Activity (Candida albicans): inactive
MIC (Enterococcus faecalis [35]): 250 µM (≈ 77.1 µg/mL)
selectivity ratio [36]: > 6.4
IC50 (MONO-MAC-6 [37]): 1.7 µM

O=C(N/N=C/c1cc(Cl)ccc1O)c1ccc(C(F)(F)F)cc1
selectivity ratio [38]: > 50.5
MIC (Staphylococcus aureus [1]): 1.98 µM (≈ 0.679 µg/mL)
Activity (Lichtheimia corymbifera): inactive
MIC (Pichia kudriavzevii [2]): > 125 µM
MIC (Mycobacterium kansasii [3]): 125 µM (≈ 42.8 µg/mL)
MIC (Candida tropicalis [4]): > 125 µM
MIC (Mycobacterium kansasii [5]): 125 µM (≈ 42.8 µg/mL)
MIC (Staphylococcus aureus [6]): 1.98 µM (≈ 0.679 µg/mL)
MIC (Staphylococcus aureus [7]): 1.98 µM (≈ 0.679 µg/mL)
selectivity ratio [39]: > 1.6
IC50 [8]: > 100 µM
MIC (Enterococcus faecalis [9]): 1.98 µM (≈ 0.679 µg/mL)
MIC (Mycobacterium kansasii [10]): 125 µM (≈ 42.8 µg/mL)
MIC [11]: 3.9 µM (≈ 1.34 µg/mL)
MIC (Nakaseomyces glabratus [12]): ≤ 0.49 µM
MIC (Mycobacterium kansasii [13]): 125 µM (≈ 42.8 µg/mL)
MIC (Mycobacterium avium [14]): 62.5 µM (≈ 21.4 µg/mL)
Activity (Aspergillus fumigatus): inactive
MIC [15]: 62.5 µM (≈ 21.4 µg/mL)
selectivity ratio [40]: > 1.6
MIC (Staphylococcus aureus [16]): 1.98 µM (≈ 0.679 µg/mL)
MIC [17]: 1.98 µM (≈ 0.679 µg/mL)
MIC [18]: 62.5 µM (≈ 21.4 µg/mL)
MIC (Escherichia coli [19]): 250 µM (≈ 85.7 µg/mL)
MIC [20]: 3.9 µM (≈ 1.34 µg/mL)
MIC (Mycobacterium avium [21]): 125 µM (≈ 42.8 µg/mL)
IC50 (MONO-MAC-6 [22]): 5.8 µM
MIC (Escherichia coli [23]): 250 µM (≈ 85.7 µg/mL)
selectivity ratio [24]: > 25.6
selectivity ratio [41]: > 1.6
MIC [25]: 3.9 µM (≈ 1.34 µg/mL)
Activity (Pseudomonas aeruginosa): inactive
MIC (Mycobacterium kansasii [26]): 62.5 µM (≈ 21.4 µg/mL)
Activity (Klebsiella pneumoniae [27]): inactive
MIC (Nakaseomyces glabratus [28]): 0.98 µM (≈ 0.336 µg/mL)
MIC (Pichia kudriavzevii [29]): > 125 µM
IC50 (HepG2 [30]): 13.6 µM
MIC (Mycobacterium kansasii [31]): 62.5 µM (≈ 21.4 µg/mL)
Activity (Trichosporon asahii): inactive
IC50 (HepG2 [32]): > 100 µM
Activity (Klebsiella pneumoniae [33]): inactive
MIC (Candida tropicalis [34]): > 125 µM
selectivity ratio [42]: > 1.6
Activity (Candida albicans): inactive
MIC (Enterococcus faecalis [35]): 3.9 µM (≈ 1.34 µg/mL)
selectivity ratio [36]: > 25.6
IC50 (MONO-MAC-6 [37]): 10.3 µM

From ChEMBL document CHEMBL4177650, “Synthesis and biological evolution of hydrazones derived from 4-(trifluoromethyl)benzohydrazide” (Bioorg Med Chem Lett, 2017)
